Assay results taken from PMC4607367, “Gedunin and Azadiradione: Human Pancreatic Alpha-Amylase Inhibiting Limonoids from Neem (Azadirachta indica) as Anti-Diabetic Agents” (PLoS ONE, 2015).

Key:
[1] = test system: AR42J rat pancreatic acinar cells; details: 24 h, 3.5 μM
Description: (§1) Cells were seeded at 2×10^4 cells well^-1 onto 96 wells culture dish. […] Appropriate medium and DMSO controls were simultaneously set up. […] At the end of 24 h incubation period the culture media was removed from the samples and fresh culture media (100 μl) containing 20 μl of MTT tetrazolium bromide (5 mg ml^-1) added and incubated for 3 h at 37°C. Metabolically active cells reduce MTT to insoluble purple formazan dye crystals, which were dissolved by addition of 300 μl DMSO solution at the end of the incubation period and quantitated at 550 nm [34].

[2] = molecular target: T1, Human pancreatic α-amylase (HPA) (Homo sapiens, UniProt P04746); assay: Ligand binding to HPA by fluorescence quenching titration, thermodynamic parameters
T1 construct: purchased Sigma Aldrich, USA
T1 sequence (P04746 16-511): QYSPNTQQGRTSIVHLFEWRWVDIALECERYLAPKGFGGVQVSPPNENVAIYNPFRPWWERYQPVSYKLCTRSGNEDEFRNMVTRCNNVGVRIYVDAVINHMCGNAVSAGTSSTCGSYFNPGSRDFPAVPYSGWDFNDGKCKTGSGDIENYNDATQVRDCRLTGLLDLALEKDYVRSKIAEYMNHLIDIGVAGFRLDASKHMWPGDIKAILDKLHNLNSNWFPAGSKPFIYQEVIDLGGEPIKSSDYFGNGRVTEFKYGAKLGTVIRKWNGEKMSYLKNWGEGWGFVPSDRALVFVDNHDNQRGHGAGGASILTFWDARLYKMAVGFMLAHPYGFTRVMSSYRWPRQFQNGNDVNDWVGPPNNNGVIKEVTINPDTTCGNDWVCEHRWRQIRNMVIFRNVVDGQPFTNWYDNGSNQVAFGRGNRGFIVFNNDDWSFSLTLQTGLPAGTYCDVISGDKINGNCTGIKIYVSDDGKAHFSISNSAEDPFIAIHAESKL
Description: Ligand binding studies using fluorescence measurements of HPA were carried as described in our earlier report. […] Non-linear and linear regression analyses were used to analyze the data.
The thermodynamic parameters, association constants (K a), dissociation constant (K d) and Gibbs free energy (ΔG°) of binding for azadiradione and gedunin were determined at various temperatures 25°C to 60°C by fluorescence quenching studies.

[3] = molecular target: T1, Human pancreatic α-amylase (HPA); assay: Human pancreatic α-amylase inhibition and stoichiometry (DNSA); assay type: biochemical; details: percentage inhibition versus molar ratio of HPA and inhibitor; HPA 14.85 μM
From the text: The control HPA (0.25 U) without inhibitors represented 100% enzyme activity.

[4] = molecular target: T1, Human pancreatic α-amylase (HPA); assay: HPA inhibition kinetics (Michaelis-Menten, Lineweaver-Burk, secondary plots); assay type: biochemical
Description: The mode of inhibition of HPA by the lead inhibitors azadiradione and gedunin were determined using Michaelis-Menton and Lineweaver-Burk equations. Starch (1–5mg ml^-1) and maltopentaose (0.05–0.4mM) were incubated with inhibitors-HPA for 10 and 2.5 min, respectively and the residual enzyme activity determined by DNSA method for starch and Nelson-Somogyi’s method for maltopentaose.The inhibitor constants(K i) were determined on the basis of mode of inhibition.

[5] = molecular target: T2, secreted pancreatic α-amylase of AR42J cells (Rattus norvegicus, UniProt P00689); assay: Bioactivity: inhibition of secreted pancreatic α-amylase in dexamethasone-induced AR42J cells, incl. starch load test (DNSA); assay type: cell-based; details: AR42J
T2 construct: host or cells: AR42J rat pancreatic acinar cells, induced with 10 nM dexamethasone
T2 sequence (P00689 16-508): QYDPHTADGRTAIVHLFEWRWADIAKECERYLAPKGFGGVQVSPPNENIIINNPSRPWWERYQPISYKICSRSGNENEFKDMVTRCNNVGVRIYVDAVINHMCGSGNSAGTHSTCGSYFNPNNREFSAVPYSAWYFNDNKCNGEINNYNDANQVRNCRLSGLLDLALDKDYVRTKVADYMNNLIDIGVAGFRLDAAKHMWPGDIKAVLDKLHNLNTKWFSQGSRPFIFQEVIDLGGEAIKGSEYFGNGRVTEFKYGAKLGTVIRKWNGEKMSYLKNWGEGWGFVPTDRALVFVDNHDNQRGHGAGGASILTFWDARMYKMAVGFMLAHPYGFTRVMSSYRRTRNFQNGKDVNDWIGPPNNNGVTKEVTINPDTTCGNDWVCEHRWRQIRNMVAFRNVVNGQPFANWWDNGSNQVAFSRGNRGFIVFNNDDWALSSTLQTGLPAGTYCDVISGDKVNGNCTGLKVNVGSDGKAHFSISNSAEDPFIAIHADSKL
From the text: Appropriate medium and DMSO controls were simultaneously set up.

[6] = Cytotoxicity in AR42J cell line (MTT); details: rat, AR42J pancreatic acinar cells
Description: as §1

[7] = test system: AR42J rat pancreatic acinar cells; assay: Cytotoxicity in AR42J cell line (MTT); details: AR42J; azadiradione 3.5 μM, gedunin 3.3 μM (Fig 3)
Description: as §1

[8] = molecular target: T3, Porcine pancreatic α-amylase (PPA) (Sus scrofa, UniProt P00690); assay: Porcine pancreatic α-amylase inhibition assay, chromogenic DNSA method (primary screening); assay type: biochemical; details: starch 1% w/v, pH 6.9, 37°C
T3 construct: purchased SRL, Mumbai, India
T3 sequence (P00690 16-511): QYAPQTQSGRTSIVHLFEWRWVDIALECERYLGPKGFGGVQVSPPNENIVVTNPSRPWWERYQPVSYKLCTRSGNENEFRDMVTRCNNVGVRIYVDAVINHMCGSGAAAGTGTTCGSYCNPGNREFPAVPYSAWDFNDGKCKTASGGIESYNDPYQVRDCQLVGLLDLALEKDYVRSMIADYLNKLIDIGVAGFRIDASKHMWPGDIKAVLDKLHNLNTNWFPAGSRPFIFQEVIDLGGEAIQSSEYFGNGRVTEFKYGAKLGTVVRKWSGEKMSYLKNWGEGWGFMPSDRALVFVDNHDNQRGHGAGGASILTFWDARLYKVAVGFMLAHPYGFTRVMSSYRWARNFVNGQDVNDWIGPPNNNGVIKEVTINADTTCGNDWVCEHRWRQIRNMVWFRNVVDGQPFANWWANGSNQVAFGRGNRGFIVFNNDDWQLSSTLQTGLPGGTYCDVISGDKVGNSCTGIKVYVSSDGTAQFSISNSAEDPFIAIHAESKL
Description: The inhibition assay was performed using the chromogenic DNSA method. PPA was used for preliminary screening of α-amylase inhibitors. […] Moreover a high degree gene sequence similarity (~ 90%) exists between human salivary α-amylase (HSA) and PPA as reported by (Buisson et al 1987). Brayer et al (1995) have reported 97% primary sequence similarity between human salivary and human pancreatic α-amylases and a 70% structural similarity between PPA and HPA [11]. Thus, a high degree of similarity between PPA and HPA allows us to use it as the enzyme for screening inhibitors.
In brief, the total assay mixture consisting of 0.02 M sodium phosphate buffer, pH6.9, (containing 6 mM NaCl), 0.2–0.25 U of PPA and inhibitors (13.8–214.3 μM) in DMSO was incubated at 37°C for 10 min. After pre-incubation, the substrate starch (1%, w/v) solution was added to the reaction mixture and further incubated for 15 min. The control PPA (0.21 U) without any inhibitor represented 100% enzyme activity. One unit of enzyme activity is defined as the amount of enzyme required to release one micromole of maltose from starch/maltopentaose per min under the assay conditions. The other quantifiers calculated were: % Relative enzyme activity = (enzyme activity of test/enzyme activity of control)*100. % inhibition = (100 − % relative enzyme activity).
The IC50 values were determined from plots of percent inhibition versus inhibitor concentration and calculated by logarithmic regression analysis. To eliminate the absorbance produced by the compound, appropriate controls were included. The known PPA/HPA inhibitor acarbose was used as a positive control at a concentration range of 10–50 μM.

[9] = linear van't Hoff plot, 298–333 K

**Q.** With CC(=O)O[C@@H]1C[C@H]2C(C)(C)C(=O)C=C[C@]2(C)[C@H]2CC[C@]3(C)C(=CC(=O)[C@H]3c3ccoc3)[C@@]21C [azadiradione] as the compound, how does the Cell death [1] read?
**A.** 8.6%

**Q.** And the “-ΔG°” value ([2]; 298 K)?
**A.** 21.25 k J mol^-1

**Q.** What about the K a ([2]; 298 K) of the same compound?
**A.** 4300 M⁻¹

**Q.** And the Kd ([2]; 298 K)?
**A.** 200 ± 3 µM

**Q.** What about the “-ΔG°” value ([2]; 303 K) of the same compound?
**A.** 20.88 k J mol^-1

**Q.** And the K a ([2]; 303 K)?
**A.** 3900 M⁻¹

**Q.** What about the Kd ([2]; 303 K) of the same compound?
**A.** 200 ± 1 µM

**Q.** What about the “-ΔG°” value ([2]; 308 K) of the same compound?
**A.** 20.27 k J mol^-1

**Q.** And the K a ([2]; 308 K)?
**A.** 2700 M⁻¹

**Q.** What about the Kd ([2]; 308 K) of the same compound?
**A.** 300 ± 5 µM

**Q.** And the “-ΔG°” value ([2]; 313 K)?
**A.** 20.29 k J mol^-1

**Q.** And the K a ([2]; 313 K)?
**A.** 2400 M⁻¹

**Q.** What about the Kd ([2]; 313 K) of the same compound?
**A.** 400 ± 7 µM

**Q.** What about the “-ΔG°” value ([2]; 323K) of the same compound?
**A.** 19.87 k J mol^-1

**Q.** What about the K a ([2]; 323K) of the same compound?
**A.** 1600 M⁻¹

**Q.** What about the Kd ([2]; 323K) of the same compound?
**A.** 600 ± 2 µM

**Q.** And the “-ΔG°” value ([2]; 333K)?
**A.** 18.54 k J mol^-1

**Q.** And the K a ([2]; 333K)?
**A.** 810 M⁻¹

**Q.** What about the Kd ([2]; 333K) of the same compound?
**A.** 1200 ± 30 µM

**Q.** What about the “Maximal quenching of intrinsic HPA fluorescence” value ([2]; 350 nm, azadiradione 3.9–118 μM, gedunin 2.0–51.86 μM) of the same compound?
**A.** 33%

**Q.** What about the “Maximum ΔG° of binding” value ([2]; calculated from binding constants, maximal affinity at 298 K) of the same compound?
**A.** -21.25 kJ/mol

**Q.** What about the “Enthalpy (ΔHvH)” value [2, 9] of the same compound?
**A.** -41.86 kJ/mol

**Q.** And the “Entropy (-ΔS)” value [2, 9]?
**A.** 70.09 J mol^-1K^-1

**Q.** What about the “Stoichiometry of HPA inactivation” value [3] of the same compound?
**A.** 0.66

**Q.** What about the Ki ([4]; maltopentaose as substrate, secondary plots) of the same compound?
**A.** 42.2 µM

**Q.** And the “Apparent K i ′” value ([4]; starch as substrate, secondary plots)?
**A.** 75.8 µM

**Q.** And the “Mode of HPA inhibition” value ([4]; substrates starch and maltopentaose, Lineweaver-Burk)?
**A.** mixed

**Q.** What about the “Secreted amylase inhibition in starch load test” value ([5]; 0.5% (w/v) starch, up to two hours) of the same compound?
**A.** 22.9%

**Q.** What about the “Amylase inhibition at the cytotoxic IC50 concentration” value ([5]; 24 h, at 11.1, 13.4 and 4.1 μM respectively) of the same compound?
**A.** 70.1%

**Q.** What about the inhibition at 3.5 µM ([5]; AR-42J, 3.5 μM) of the same compound?
**A.** 41.8%

**Q.** And the IC50 at 24 h [6]?
**A.** 11.1 µM

**Q.** And the “Cell morphology versus controls” value [7]?
**A.** no morphological change

**Q.** What about the IC50 [8] of the same compound?
**A.** 138 µM
